Several values for one entry are separate records, joined by “and”; a condition that tells them apart may be missing. Equal entries are not always repeated. One block for each compound: values may come before it.
Test system: 186277-243-T-J2-PDC complex spheroid growth, % test/control
Experiment: Anticancer human tumor 186277-243-T-J2-PDC patient-derived colon adenocarcinoma cell line growth inhibition [Asc]
Details: for viability, T/C: stronger effect = lower value
How it was run: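 Tumor cells were grown as multicellular spheroids with stromal HUVEC and mesenchymal stem cells and treated singly or in combination. Concentrations fell in half-log steps from the clinical Cmax, or from 10 microM where none was known.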
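Note: spheroids exposed to agents for 7 days.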
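Throughout, for viability, T/C: 100% = DMSO vehicle control wells.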

IC50 (curve of first compound, second compound 0.1 µM): 0.746 µM
IC50 (curve of first compound, second compound 0.316 µM): 0.397 µM
IC50 (curve of first compound, second compound 1 µM): 0.202 µM
IC50 (curve of first compound, second compound 3.16 µM): 0.11 µM
IC50 (curve of first compound, second compound 10 µM): 0.0975 µM
SMILES: CCN1C(C(=O)NC23CCC(C(=O)O)(CC2)CC3)C(c2cccc(Cl)c2F)C2(C(=O)Nc3cc(Cl)ccc32)C12CCCCC2 (stereo not drawn) + Cc1c(S(C)(=O)=O)c(-c2cc(F)cc(N3CCN(c4ccc(NS(=O)(=O)c5ccc(NC(CCN6CCC(C(=O)OCCCP(=O)(O)O)CC6)CSc6ccccc6)c(S(=O)(=O)C(F)(F)F)c5)cc4)CC3)c2)c(-c2ccc(Cl)cc2)n1C(C)C
viability, T/C (second compound 0.1 µM, first compound 0.00949 µM): 103%
viability, T/C (second compound 0.1 µM, first compound 0.03 µM): 137%
viability, T/C (second compound 0.1 µM, first compound 0.0949 µM): 91.4%
viability, T/C (second compound 0.1 µM, first compound 0.3 µM): 73.6%
viability, T/C (second compound 0.1 µM, first compound 0.949 µM): 47.5%
viability, T/C (second compound 0.1 µM, first compound 3 µM): 14%
viability, T/C (second compound 0.316 µM, first compound 0.00949 µM): 111%
viability, T/C (second compound 0.316 µM, first compound 0.03 µM): 121%
viability, T/C (second compound 0.316 µM, first compound 0.0949 µM): 82.6%
viability, T/C (second compound 0.316 µM, first compound 0.3 µM): 59.3%
viability, T/C (second compound 0.316 µM, first compound 0.949 µM): 26.1%
viability, T/C (second compound 0.316 µM, first compound 3 µM): 1.1%
viability, T/C (second compound 1 µM, first compound 0.00949 µM): 107%
viability, T/C (second compound 1 µM, first compound 0.03 µM): 126%
viability, T/C (second compound 1 µM, first compound 0.0949 µM): 72.7%
viability, T/C (second compound 1 µM, first compound 0.3 µM): 38.3%
viability, T/C (second compound 1 µM, first compound 0.949 µM): 8.6%
viability, T/C (second compound 1 µM, first compound 3 µM): 1.06%
viability, T/C (second compound 3.16 µM, first compound 0.00949 µM): 120%
viability, T/C (second compound 3.16 µM, first compound 0.03 µM): 103%
viability, T/C (second compound 3.16 µM, first compound 0.0949 µM): 52.5%
viability, T/C (second compound 3.16 µM, first compound 0.3 µM): 19.8%
viability, T/C (second compound 3.16 µM, first compound 0.949 µM): 2.56%
viability, T/C (second compound 3.16 µM, first compound 3 µM): 0.36%
viability, T/C (second compound 10 µM, first compound 0.00949 µM): 107%
viability, T/C (second compound 10 µM, first compound 0.03 µM): 110%
viability, T/C (second compound 10 µM, first compound 0.0949 µM): 49.7%
viability, T/C (second compound 10 µM, first compound 0.3 µM): 13.4%
viability, T/C (second compound 10 µM, first compound 0.949 µM): 3.44%
viability, T/C (second compound 10 µM, first compound 3 µM): 0.38%

IC50 (curve of compound): 1.86 µM and > 3 µM
SMILES: CCN1C(C(=O)NC23CCC(C(=O)O)(CC2)CC3)C(c2cccc(Cl)c2F)C2(C(=O)Nc3cc(Cl)ccc32)C12CCCCC2 (stereo not drawn)
viability, T/C (compound 0.00949 µM): 110% and 119%

IC50 (curve of compound): 5.7 µM and 5.17 µM and 9.28 µM
SMILES: C=C(F)C(=O)N1CCN(c2nc(OCC3CCCN3C)nc3c2CCN(c2cccc4cccc(Cl)c24)C3)CC1CC#N (stereo not drawn)
viability, T/C (compound 0.0316 µM): 107% and 98.5% and 102%
viability, T/C (compound 0.1 µM): 112% and 77.5% and 116%
viability, T/C (compound 0.316 µM): 107% and 83.6% and 103%
viability, T/C (compound 1 µM): 103% and 77.3% and 80.7%
viability, T/C (compound 3.16 µM): 96.5% and 85% and 109%
